Laboratory results: patent US11427548B2 (Arvinas Operations, Inc., priority 2015, dated 2022)
Where two headings read alike, the source gives them in different places.

Molecular target: T1, Androgen Receptor (Homo sapiens, UniProt P10275)
T1 construct: endogenous in cells; host or cells: VCaP cells
T1 sequence (P10275 1-920): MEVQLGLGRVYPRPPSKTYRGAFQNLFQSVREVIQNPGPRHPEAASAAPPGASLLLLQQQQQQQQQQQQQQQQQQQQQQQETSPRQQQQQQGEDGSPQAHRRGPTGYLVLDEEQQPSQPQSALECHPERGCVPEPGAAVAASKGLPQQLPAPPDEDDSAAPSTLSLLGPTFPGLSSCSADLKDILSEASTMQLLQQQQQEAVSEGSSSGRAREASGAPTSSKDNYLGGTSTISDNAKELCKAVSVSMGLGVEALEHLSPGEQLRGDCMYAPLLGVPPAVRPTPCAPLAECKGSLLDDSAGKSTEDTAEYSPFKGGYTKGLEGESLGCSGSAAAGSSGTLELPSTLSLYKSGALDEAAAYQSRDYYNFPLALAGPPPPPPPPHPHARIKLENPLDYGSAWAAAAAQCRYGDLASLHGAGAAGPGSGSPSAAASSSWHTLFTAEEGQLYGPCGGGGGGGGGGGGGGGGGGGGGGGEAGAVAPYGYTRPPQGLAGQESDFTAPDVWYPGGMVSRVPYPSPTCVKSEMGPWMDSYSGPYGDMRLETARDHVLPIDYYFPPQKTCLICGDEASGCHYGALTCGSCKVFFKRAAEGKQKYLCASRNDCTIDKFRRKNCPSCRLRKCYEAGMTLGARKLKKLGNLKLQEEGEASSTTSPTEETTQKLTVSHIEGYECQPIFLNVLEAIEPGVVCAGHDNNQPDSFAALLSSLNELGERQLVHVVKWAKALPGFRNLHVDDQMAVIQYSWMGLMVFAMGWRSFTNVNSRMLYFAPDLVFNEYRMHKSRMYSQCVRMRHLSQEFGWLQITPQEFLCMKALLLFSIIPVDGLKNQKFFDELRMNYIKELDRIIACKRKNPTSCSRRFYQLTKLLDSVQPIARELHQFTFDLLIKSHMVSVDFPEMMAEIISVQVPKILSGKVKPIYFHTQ
Assay: Androgen Receptor ELISA assay (PathScan AR ELISA) in VCaP cells: AR degradation, Dmax and DC50
Assay type: cell-based
Description: 1. Androgen Receptor ELISA Assay.
The protocols used with VCaP cells are described below. The androgen receptor ELISA assay was performed using PathScan AR ELISA (Cell Signaling Catalog #12850) according to the following assay steps:
VCaP cells are seeded at 30,000 cells/well at a volume of 200 μL/well in VCaP assay medium [Phenol red free RPMI (Gibco Cat #11835-030); 5% Charcoal Stripped (Dextran treated) FBS (Omega Scientific, Cat #FB-04); Pen/Strep Life Technologies (Gibco Cat #: 10378-016); 0.1 nM R1881 (Sigma, Cat #R0908) is added upon the start of the assay, not during initial plating of the cells) in Corning 3904 plates. The cells are grown for a minimum of 3 days.
First, cells are dosed with compounds diluted in 0.1% DMSO—use a polypropylene plate according to the following protocol: (1)(i) make 1000× stock plate in DMSO; (ii) 20 mM stock diluted 1/6.7 with DMSO (5 μL+28.3 μL DMSO)=3 mM into row H; (iii) perform serial dilutions in ½ log doses (10 μL of PROTAC+20 μL DMSO) from row H towards row B. Reserve row A for DMSO; (iv) 7 doses total (final concentration in this 1000× plate will be 3 mM, 1 mM, 333 μM, 111 μM, etc). (2)(i) Make 10× stock plate in media; (ii) transfer 2.5 μL of the 1000× stock to a new 10× stock plate (use 12 channel pipet, start at A (DMSO control) work thru H. When 247.5 μL of media is added to this plate, it will serve as a 10× stock; (iii) make media+1 nM R1881 for making 10× stock plate; (iv) add 247.5 μL of media with 1 nM R1881 to each well of the 10× stock plate, mix.
Then 22 μL of 10× stock is added to cells and incubated for 24 h. 1× Cell Signaling Cell lysis buffer is made (Catalogue #9803; comes with the kit)—prepare for 50 μL/well. Keep on ice. Media is aspirated, and 50 μL 1× cell lysis buffer/well is added. The cells are placed on ice for 10 minutes. The solution is mixed and transferred to PCR plate, and centrifuged at 4C for 10 minutes at 4000 rpm.
5 μL is transferred to fresh plate (use immediately or freeze −80 C); 115 μL ELISA Dilutant is added (0.15 ug/ml-0.075 ug/ml; comes with the PathScan ELISA).
Add 100 μL/well AR Elisa; cover and shake, 37 C for 2 hrs; dump, tap, wash 4×200 μL ELISA wash buffer; add 100 μL/well mouse AR detection Ab; cover and shake, 37 C for 1 hr; dump, tap, wash 4×200 μL ELISA wash buffer; add 100 μL/well anti-mouse—HRP conjugated Ab (comes with the kit); cover and shake, 37 C for 30 min; allow TMB reagent to come to room temperature; dump, tap, wash 4×200 μL Elisa wash buffer; tap; add 100 μL TMB, shake 5 min—while watching color. Add the stop reagent when light blue color develops. Add 100 μL Stop solution; shake and read at 450 nm.

[1] = read-out: VCaP DC50; concentration that caused 50% Androgen Receptor degradation, VCaP cells

Structure (SMILES)	Dmax (VCaP, read-out: VCaP Dmax (%)) [%]	DC50 [1] [nM]	other results
Cc1ncsc1-c1ccc([C@H](C)NC(=O)[C@@H]2C[C@H](O)CN2C(=O)[C@@H](NC(=O)COCCN2CCN(c3ccc(C(=O)N[C@H]4C(C)(C)[C@H](Oc5ccc(C#N)c(Cl)c5)C4(C)C)cn3)CC2)C(C)(C)C)cc1 (stereo in doubt) [Example 608, N-((1r,3r)-3-(3-chloro-4-cyanophenoxy)-2,2,4,4-tetramethylcyclobutyl)-6-(4-(2-(2-(((S)-1-((2S,4R)-4-hydroxy-2-(((S)-1-(4-(4-methylthiazol-5-yl)phenyl)ethyl)carbamoyl)pyrrolidin-1-yl)-3,3-dimethyl-1-oxobutan-2-yl)amino)-2-oxoethoxy)ethyl)piperazin-1-yl)nicotinamide]			DC50 (VCaP cells; Table 36; read-out: VCaP DC50): < 50 nM; Dmax (VCaP, VCaP cells; Table 36; read-out: VCaP Dmax (%)): > 71%
Cc1nccn1-c1ccc([C@H](C)NC(=O)[C@@H]2C[C@@H](O)CN2C(=O)C(C(C)C)n2cc(OCCCOCCCCCOc3ccc(N4C(=S)N(c5ccc(C#N)c(C(F)(F)F)c5)C(=O)C4(C)C)cc3)cn2)cc1 (stereo in doubt) [Example 612, (2S,4R)-1-((R)-2-(4-(3-((5-(4-(3-(4-cyano-3-(trifluoromethyl)phenyl)-5,5-dimethyl-4-oxo-2-thioxoimidazolidin-1-yl)phenoxy)pentyl)oxy)propoxy)-1H-pyrazol-1-yl)-3-methylbutanoyl)-4-hydroxy-N-((S)-1-(4-(2-methyl-1H-imidazol-1-yl)phenyl)ethyl)pyrrolidine-2-carboxamide]			VCaP Dmax (%) (VCaP cells; Table 36): _+; DC50 (read-out: VCaP DC50; VCaP cells; Table 36): > 501 nM
Cc1ncsc1-c1ccc(CNC(=O)[C@@H]2C[C@@H](O)CN2C(=O)[C@@H](NC(=O)COCCCOCCC(O)CCOc2ccc(N3C(=S)N(c4ccc(C#N)c(C(F)(F)F)c4)C(=O)C3(C)C)cc2)C(C)(C)C)cc1 (stereo partly drawn) [Example 13, (2S,4R)-1-[(2S)-2-[2-(3-{[5-(4-{3-[4-cyano-3-(trifluoromethyl)phenyl]-5,5-dimethyl-4-oxo-2-sulfanylideneimidazolidin-1-yl}phenoxy)-3-hydroxypentyl]oxy}propoxy)acetamido]-3,3-dimethylbutanoyl]-4-hydroxy-N-{[4-(4-methyl-1,3-thiazol-5-yl)phenyl]methyl}pyrrolidine-2-carboxamide]	26 to 50	< 50	
CC(C)(C)[C@H](NC(=O)COCCCOCCCCCOc1ccc(N2C(=S)N(c3ccc(C#N)c(C(F)(F)F)c3)C(=O)C2(C)C)cc1)C(=O)N1C[C@H](O)C[C@H]1C(=O)NCc1ccc(Cl)cc1 [Example 14, (2S,4R)-N-[(4-chlorophenyl)methyl]-1-[(2S)-2-[2-(3-{[5-(4-{3-[4-cyano-3-(trifluoromethyl)phenyl]-5,5-dimethyl-4-oxo-2-sulfanylideneimidazolidin-1-yl}phenoxy)pentyl]oxy}propoxy)acetamido]-3,3-dimethylbutanoyl]-4-hydroxypyrrolidine-2-carboxamide]		> 501	
CC(C)(C)[C@H](NC(=O)COCCCOCCCCCOc1ccc(N2C(=S)N(c3ccc(C#N)c(C(F)(F)F)c3)C(=O)C2(C)C)cc1)C(=O)N1C[C@H](O)C[C@H]1C(=O)NCc1ccc(C#N)cc1 [Example 15, (2S,4R)-1-[(2S)-2-[2-(3-{[5-(4-{3-[4-cyano-3-(trifluoromethyl)phenyl]-5,5-dimethyl-4-oxo-2-sulfanylideneimidazolidin-1-yl}phenoxy)pentyl]oxy}propoxy)acetamido]-3,3-dimethylbutanoyl]-N-[(4-cyanophenyl)methyl]-4-hydroxypyrrolidine-2-carboxamide]	26 to 50	< 50	
Cc1ncsc1-c1ccc(CNC(=O)[C@@H]2C[C@@H](O)CN2C(=O)[C@@H](NC(=O)COCCOCCOCCOc2ccc(N3C(=S)N(c4ccc(C#N)c(C(F)(F)F)c4)C(=O)C3(C)C)cc2)C(C)(C)C)cc1 [Example 16, (2S,4R)-1-[(2S)-2-[2-(2-{2-[2-(4-{3-[4-cyano-3-(trifluoromethyl)phenyl]-5,5-dimethyl-4-oxo-2-sulfanylideneimidazolidin-1-yl}phenoxy)ethoxy]ethoxy}ethoxy)acetamido]-3,3-dimethylbutanoyl]-4-hydroxy-N-{[4-(4-methyl-1,3-thiazol-5-yl)phenyl]methyl}pyrrolidine-2-carboxamide]	26 to 50		
